Experimental data reported in patent US20260116920A1, “HUMAN TRANSFERRIN RECEPTOR BINDING PEPTIDE” (PEPTIDREAM INC., priority 2021, published 2026).
Starred links: 1 amine or outer side, 2 acyl side, 3 side chain; linkers in the order of their positions; H or OH if unused. Positions of bridges follow the written chain, without caps; N, C: chain ends. Non-standard residues stand in square brackets, D forms with d. Residues, ends and D or L forms follow the SMILES beside them. *: point of attachment. NMePhe(4-COOH) = CN[C@@H](Cc1ccc(C(=O)O)cc1)C(=O)O; X1 = O=C([C@H](Cc1cccc(C(=O)[*:3])c1)N[*:1])[*:2]; Nle(6-morpholino) = N[C@@H](CCCCN1CCOCC1)C(=O)O; Phe(3-COOH) = N[C@@H](Cc1cccc(C(=O)O)c1)C(=O)O; Trp(7-aza) = N[C@@H](Cc1c[nH]c2ncccc12)C(=O)O; NH(CH2CH2O)8Me = COCCOCCOCCOCCOCCOCCOCCOCCN*; NMePhe(3-Cl) = CN[C@@H](Cc1cccc(Cl)c1)C(=O)O; 3Pal(6-NH2) = Nc1ccc(C[C@H](N)C(=O)O)cn1; X2 = COCCOCCOCCOCCOCCOCCOCCOCCNC(=O)C*; NMeY = CN[C@@H](Cc1ccc(O)cc1)C(=O)O; 4Pal = N[C@@H](Cc1ccncc1)C(=O)O; PEG4 = NCCOCCOCCOCCOCCC(=O)O; Carboxymethyl = O=C(O)C*

molecular target: T1, human transferrin receptor (hTfR) (Homo sapiens, UniProt P02786); experiment: Evaluation of molecular interaction between transferrin receptor (hTfR) and peptide using surface plasmon resonance (SPR); assay type: binding; conditions: peptide with linker, surface plasmon resonance; read-out: SPR (KD class for binding to hTfR)
T1 construct: made in house
T1 sequence (P02786 89-760 limits assumed): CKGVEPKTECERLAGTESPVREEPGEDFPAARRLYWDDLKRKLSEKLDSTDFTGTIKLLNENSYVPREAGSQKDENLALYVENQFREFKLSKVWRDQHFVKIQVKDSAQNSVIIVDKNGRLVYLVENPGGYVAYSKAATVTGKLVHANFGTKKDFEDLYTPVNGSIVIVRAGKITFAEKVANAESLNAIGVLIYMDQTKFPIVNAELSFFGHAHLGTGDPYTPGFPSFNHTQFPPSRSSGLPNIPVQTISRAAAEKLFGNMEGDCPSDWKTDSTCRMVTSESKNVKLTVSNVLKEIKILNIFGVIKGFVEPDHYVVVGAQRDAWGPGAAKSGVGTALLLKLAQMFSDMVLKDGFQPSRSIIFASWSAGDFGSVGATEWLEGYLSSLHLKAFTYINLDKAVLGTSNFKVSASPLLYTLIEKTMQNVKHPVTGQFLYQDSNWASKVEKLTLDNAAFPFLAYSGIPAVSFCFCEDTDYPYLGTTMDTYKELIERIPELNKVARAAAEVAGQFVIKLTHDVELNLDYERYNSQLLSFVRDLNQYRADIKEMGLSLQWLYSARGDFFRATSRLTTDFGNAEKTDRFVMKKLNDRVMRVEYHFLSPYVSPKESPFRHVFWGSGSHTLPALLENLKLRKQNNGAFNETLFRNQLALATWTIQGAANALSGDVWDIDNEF
In short: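 Single-cycle SPR kinetics, KD by least-squares sensorgram fitting, with peptide series of 100, 50, 25, 10 and 5 nM. Running buffer: 10 mM HEPES pH 8.0, 150 mM NaCl, 0.05% Tween 20, 0.1% BSA, 1.0% DMSO. Surface: hTfR dimer covalently coupled (EDC/NHS) onto Ni-NTA chip.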

Row | Kd [nM] | SMILES
1 | 1 to 100 | CC[C@H](C)[C@@H]1NC(=O)[C@H](Cc2ccc(OCC(=O)O)cc2)NC(=O)[C@H](Cc2ccc(N)nc2)NC(=O)[C@H](CC(N)=O)NC(=O)[C@H](Cc2c[nH]c3ncccc23)NC(=O)[C@H](C(C)C)NC(=O)[C@H](Cc2cccc(Cl)c2)N(C)C(=O)[C@H](C(C)C)NC(=O)[C@H](C)NC(=O)CSC[C@@H](C(=O)NCCOCCOCCOCCOCCC(N)=O)NC(=O)[C@H](Cc2ccc(O)cc2)N(C)C(=O)[C@H](Cc2ccncc2)NC(=O)[C@H](CCCNC(=N)N)NC(=O)[C@H](CCC(=O)NCCOCCOCCOCCOCCOCCOCCOCCOC)NC(=O)[C@H]([C@@H](C)CC)NC1=O [compound 224]
2 | < 1 | CC[C@H](C)[C@@H]1NC(=O)[C@H](Cc2ccc(OCC(=O)O)cc2)NC(=O)[C@H](Cc2ccc(O)cc2)NC(=O)[C@H](CC(N)=O)NC(=O)[C@H](Cc2c[nH]c3ncccc23)NC(=O)[C@H](C(C)C)NC(=O)[C@H](Cc2cccc(Cl)c2)N(C)C(=O)[C@H](C(C)C)NC(=O)[C@H](C)NC(=O)CSC[C@@H](C(=O)NCCOCCOCCOCCOCCC(N)=O)NC(=O)[C@H](Cc2ccc(O)cc2)N(C)C(=O)[C@H](Cc2cccc(C(=O)O)c2)NC(=O)[C@H](CCCNC(=N)N)NC(=O)[C@H](CCC(N)=O)NC(=O)[C@H]([C@@H](C)CC)NC1=O [compound 225]
3 | 1 to 100 | CC[C@H](C)[C@@H]1NC(=O)[C@H](Cc2ccc(OCC(=O)NCCOCCOCCOCCOCCOCCOCCOCCOC)cc2)NC(=O)[C@H](Cc2ccc(O)cc2)NC(=O)[C@H](CC(N)=O)NC(=O)[C@H](Cc2c[nH]c3ncccc23)NC(=O)[C@H](C(C)C)NC(=O)[C@H](Cc2cccc(Cl)c2)N(C)C(=O)[C@H](C(C)C)NC(=O)[C@H](C)NC(=O)CSC[C@@H](C(=O)NCCOCCOCCOCCOCCC(N)=O)NC(=O)[C@H](Cc2ccc(C(=O)NCCOCCOCCOCCOCCOCCOCCOCCOC)cc2)N(C)C(=O)[C@H](Cc2cccc(C(=O)NCCOCCOCCOCCOCCOCCOCCOCCOC)c2)NC(=O)[C@H](CCC(N)=O)NC(=O)[C@H](CCC(N)=O)NC(=O)[C@H]([C@@H](C)CC)NC1=O [compound 226] ({CH2CO}-AV[NMePhe(3-Cl)]V[Trp(7-aza)]NYY(X2)IIQQ[X1](NH(CH2CH2O)8Me)[NMePhe(4-COOH)](NH(CH2CH2O)8Me)C[PEG4]-NH2; thioether N-15)
4 | 1 to 100 | CC[C@H](C)[C@@H]1NC(=O)[C@H](Cc2ccc(OCC(=O)NCCOCCOCCOCCOCCOCCOCCOCCOC)cc2)NC(=O)[C@H](Cc2ccc(O)cc2)NC(=O)[C@H](CC(N)=O)NC(=O)[C@H](Cc2c[nH]c3ncccc23)NC(=O)[C@H](C(C)C)NC(=O)[C@H](Cc2cccc(Cl)c2)N(C)C(=O)[C@H](C(C)C)NC(=O)[C@H](C)NC(=O)CSC[C@@H](C(=O)NCCOCCOCCOCCOCCC(N)=O)NC(=O)[C@H](Cc2ccc(C(=O)NCCOCCOCCOCCOCCOCCOCCOCCOC)cc2)N(C)C(=O)[C@H](Cc2ccncc2)NC(=O)[C@H](CCC(N)=O)NC(=O)[C@H](CCC(N)=O)NC(=O)[C@H]([C@@H](C)CC)NC1=O [compound 227] ({CH2CO}-AV[NMePhe(3-Cl)]V[Trp(7-aza)]NYY(X2)IIQQ[4Pal][NMePhe(4-COOH)](NH(CH2CH2O)8Me)C[PEG4]-NH2; thioether N-15)
5 | 1 to 100 | CC[C@H](C)[C@@H]1NC(=O)[C@H](Cc2ccc(OC)cc2)NC(=O)[C@H](Cc2ccc(O)cc2)NC(=O)[C@H](CC(N)=O)NC(=O)[C@H](Cc2c[nH]c3ncccc23)NC(=O)[C@H](C(C)C)NC(=O)[C@H](Cc2cccc(Cl)c2)N(C)C(=O)[C@H](C(C)C)NC(=O)[C@H](C)NC(=O)CSC[C@@H](C(=O)NCCOCCOCCOCCOCCC(N)=O)NC(=O)[C@H](Cc2ccc(C(=O)NCCOCCOCCOCCOCCOCCOCCOCCOC)cc2)N(C)C(=O)[C@H](Cc2cccc(C(=O)NCCOCCOCCOCCOCCOCCOCCOCCOC)c2)NC(=O)[C@H](CCC(N)=O)NC(=O)[C@H](CCC(N)=O)NC(=O)[C@H]([C@@H](C)CC)NC1=O [compound 228] ({CH2CO}-AV[NMePhe(3-Cl)]V[Trp(7-aza)]NYY(Me)IIQQ[X1](NH(CH2CH2O)8Me)[NMePhe(4-COOH)](NH(CH2CH2O)8Me)C[PEG4]-NH2; thioether N-15)
6 | 1 to 100 | CC[C@H](C)[C@@H]1NC(=O)[C@H](Cc2ccc(OCC(=O)NCCOCCOCCOCCOCCOCCOCCOCCOC)cc2)NC(=O)[C@H](Cc2ccc(O)cc2)NC(=O)[C@H](CC(N)=O)NC(=O)[C@H](Cc2c[nH]c3ncccc23)NC(=O)[C@H](C(C)C)NC(=O)[C@H](Cc2cccc(Cl)c2)N(C)C(=O)[C@H](C(C)C)NC(=O)[C@H](C)NC(=O)CSC[C@@H](C(=O)NCCOCCOCCOCCOCCC(N)=O)NC(=O)[C@H](Cc2ccc(O)cc2)N(C)C(=O)[C@H](Cc2cccc(C(=O)NCCOCCOCCOCCOCCOCCOCCOCCOC)c2)NC(=O)[C@H](CCC(N)=O)NC(=O)[C@H](CCC(N)=O)NC(=O)[C@H]([C@@H](C)CC)NC1=O [compound 229] ({CH2CO}-AV[NMePhe(3-Cl)]V[Trp(7-aza)]NYY(X2)IIQQ[X1](NH(CH2CH2O)8Me)[NMeY]C[PEG4]-NH2; thioether N-15)
7 | 1 to 100 | CC[C@H](C)[C@@H]1NC(=O)[C@H](Cc2ccc(OCC(=O)O)cc2)NC(=O)[C@H](Cc2ccc(O)cc2)NC(=O)[C@H](CC(N)=O)NC(=O)[C@H](Cc2c[nH]c3ncccc23)NC(=O)[C@H](C(C)C)NC(=O)[C@H](Cc2cccc(Cl)c2)N(C)C(=O)[C@H](C(C)C)NC(=O)[C@H](C)NC(=O)CSC[C@@H](C(=O)NCCOCCOCCOCCOCCC(N)=O)NC(=O)[C@H](Cc2ccc(O)cc2)N(C)C(=O)[C@H](Cc2cccc(C(=O)O)c2)NC(=O)[C@H](CCCNC(=N)N)NC(=O)[C@H](CCC(=O)NCCOCCOCCOCCOCCOCCOCCOCCOC)NC(=O)[C@H]([C@@H](C)CC)NC1=O [compound 230]
8 | 1 to 100 | CC[C@H](C)[C@@H]1NC(=O)[C@H](Cc2ccc(OCC(=O)O)cc2)NC(=O)[C@H](Cc2ccc(O)cc2)NC(=O)[C@H](CC(N)=O)NC(=O)[C@H](Cc2cn(CC(=O)O)c3ccccc23)NC(=O)[C@H](C(C)C)NC(=O)[C@H](Cc2cccc(Cl)c2)N(C)C(=O)[C@H](C(C)C)NC(=O)[C@H](C)NC(=O)CSC[C@@H](C(=O)NCCOCCOCCOCCOCCC(N)=O)NC(=O)[C@H](Cc2ccc(O)cc2)N(C)C(=O)[C@H](Cc2ccncc2)NC(=O)[C@H](CCCNC(=N)N)NC(=O)[C@H](CCC(=O)NCCOCCOCCOCCOCCOCCOCCOCCOC)NC(=O)[C@H]([C@@H](C)CC)NC1=O [compound 231]
9 | 100 to 1000 | CC[C@H](C)[C@@H]1NC(=O)[C@H](Cc2ccc(OCC(=O)O)cc2)NC(=O)[C@H](Cc2ccc(N)nc2)NC(=O)[C@H](CC(N)=O)NC(=O)[C@H](Cc2c[nH]c3ncccc23)NC(=O)[C@H](C(C)C)NC(=O)[C@H](Cc2cccc(Cl)c2)N(C)C(=O)[C@H](C(C)C)NC(=O)[C@H](C)NC(=O)CSC[C@@H](C(=O)NCCOCCOCCOCCOCCC(N)=O)NC(=O)[C@H](Cc2ccc(O)cc2)N(C)C(=O)[C@H](CCC(=O)NCCOCCOCCOCCOCCOCCOCCOCCOC)NC(=O)[C@H](CCCNC(=N)N)NC(=O)[C@H](CCC(=O)NCCOCCOCCOCCOCCOCCOCCOCCOC)NC(=O)[C@H]([C@@H](C)CC)NC1=O [compound 232] ({CH2CO}-AV[NMePhe(3-Cl)]V[Trp(7-aza)]N[3Pal(6-NH2)]Y(Carboxymethyl)IIE(NH(CH2CH2O)8Me)RE(NH(CH2CH2O)8Me)[NMeY]C[PEG4]-NH2; thioether N-15)
10 | 1 to 100 | CC[C@H](C)[C@@H]1NC(=O)[C@H](Cc2ccc(OCC(=O)O)cc2)NC(=O)[C@H](Cc2ccc(N)nc2)NC(=O)[C@H](CC(N)=O)NC(=O)[C@H](Cc2c[nH]c3ncccc23)NC(=O)[C@H](C(C)C)NC(=O)[C@H](Cc2cccc(Cl)c2)N(C)C(=O)[C@H](C(C)C)NC(=O)[C@H](C)NC(=O)CSC[C@@H](C(=O)NCCOCCOCCOCCOCCC(N)=O)NC(=O)[C@H](Cc2ccc(O)cc2)N(C)C(=O)[C@H](Cc2cccc(C(=O)O)c2)NC(=O)[C@H](CCCCN2CCOCC2)NC(=O)[C@H](CCC(=O)NCCOCCOCCOCCOCCOCCOCCOCCOC)NC(=O)[C@H]([C@@H](C)CC)NC1=O [compound 233] ({CH2CO}-AV[NMePhe(3-Cl)]V[Trp(7-aza)]N[3Pal(6-NH2)]Y(Carboxymethyl)IIE(NH(CH2CH2O)8Me)[Nle(6-morpholino)][Phe(3-COOH)][NMeY]C[PEG4]-NH2; thioether N-15)
11 | 100 to 1000 | CC[C@H](C)[C@@H]1NC(=O)[C@H](Cc2ccc(OCC(=O)O)cc2)NC(=O)[C@H](Cc2ccc(O)cc2)NC(=O)[C@H](CC(N)=O)NC(=O)[C@H](Cc2c[nH]c3ncccc23)NC(=O)[C@H](C(C)C)NC(=O)[C@H](Cc2cccc(Cl)c2)N(C)C(=O)[C@H](C(C)C)NC(=O)[C@H](C)NC(=O)CSC[C@@H](C(=O)NCCOCCOCCOCCOCCC(N)=O)NC(=O)[C@H](Cc2ccc(O)cc2)N(C)C(=O)[C@H](CCC(=O)NCCOCCOCCOCCOCCOCCOCCOCCOC)NC(=O)[C@H](CCCCN2CCOCC2)NC(=O)[C@H](CCC(=O)NCCOCCOCCOCCOCCOCCOCCOCCOC)NC(=O)[C@H]([C@@H](C)CC)NC1=O [compound 234] ({CH2CO}-AV[NMePhe(3-Cl)]V[Trp(7-aza)]NYY(Carboxymethyl)IIE(NH(CH2CH2O)8Me)[Nle(6-morpholino)]E(NH(CH2CH2O)8Me)[NMeY]C[PEG4]-NH2; thioether N-15)
12 | 1 to 100 | CC[C@H](C)[C@@H]1NC(=O)[C@H](Cc2ccc(OC)cc2)NC(=O)[C@H](Cc2ccc(O)cc2)NC(=O)[C@H](CC(N)=O)NC(=O)[C@H](Cc2c[nH]c3ncccc23)NC(=O)[C@H](C(C)C)NC(=O)[C@H](Cc2cccc(Cl)c2)N(C)C(=O)[C@H](C(C)C)NC(=O)[C@H](C)NC(=O)CSC[C@@H](C(=O)NCCOCCOCCOCCOCCC(N)=O)NC(=O)[C@H](Cc2ccc(O)cc2)N(C)C(=O)[C@H](CCC(=O)NCCOCCOCCOCCOCCOCCOCCOCCOC)NC(=O)[C@H](CCCCN2CCOCC2)NC(=O)[C@H](CCC(=O)NCCOCCOCCOCCOCCOCCOCCOCCOC)NC(=O)[C@H]([C@@H](C)CC)NC1=O [compound 235] ({CH2CO}-AV[NMePhe(3-Cl)]V[Trp(7-aza)]NYY(Me)IIE(NH(CH2CH2O)8Me)[Nle(6-morpholino)]E(NH(CH2CH2O)8Me)[NMeY]C[PEG4]-NH2; thioether N-15)
